Test results published in paper PMC11251039, “Harnessing cholesterol uptake of malaria parasites for therapeutic applications” (EMBO Molecular Medicine, 2024).
Several values for one entry are separate records, joined by “and”; a condition that tells them apart may be missing. Identical values can stand only once. Like-named read-outs stand apart in the source and are kept apart here.

Assays:
[1] = tested on: asexual P. falciparum 3D7 wild-type parasites; test: P. falciparum asexual growth inhibition assay (SYBR Safe DNA replication); format: cell-based, Plasmodium falciparum; settings: for P. falciparum asexual growth, percentage of control: replicate values, source data Fig. 2B, listed as BC9B; for IC50: Plasmodium falciparum, read-out: IC50, P. falciparum asexual growth inhibition
In short: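 Sorbitol-synchronised ring-stage cultures at 1% parasitaemia and 1% haematocrit were exposed to 2-fold compound dilutions at 37 °C under microaerophilic conditions for 24, 48 or 72 h. Growth was read by SYBR Safe fluorescence of freeze-thaw lysates, with 200 nM chloroquine or artesunate defining background.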

[2] = tested on: P. falciparum stage III–IV gametocytes; test: P. falciparum gametocyte viability assay (MitoTracker, flow cytometry), stage III-IV; format: cell-based, Plasmodium falciparum; settings: 48 h; for Gametocyte stage III-IV viability, percentage of control: listed as BC9B
Method: Gametocyte assays commenced seven days (stage III–IV) or ten days (stage V) post-invasion. […]
Plasmodium falciparum Gametocyte Viability Assays:
Asexual P. falciparum parasites were induced to form gametocytes as described (21).
Synchronized trophozoite-stage parasites at 2% parasitaemia were incubated overnight and […]
haematocrit maintained at 4%. On the subsequent day (designated as day 0) of gametocytogenesis, the culture containing early ring-stage parasites was first purified by sorbitol synchronisation to remove asynchronous trophozoites, and passed through a magnetic field in a sterile MACS® column in a SuperMACSTM II magnet to remove remaining late-stage parasites or later-stage gametocytes (negative selection). The culture medium was supplemented with 50 mM N-acetyl-D-glucosamine to inhibit asexual parasite proliferation, and changed daily. Sorbitol treatment was performed on Day 1, 5, and 6 to further remove asexual parasites. Gametocytes were magnetically enriched (positive selection) in a sterile column with a SuperMACSTM II magnet and eluted in culture media with 50 mM N-acetyl-D-glucosamine. These gametocytes were incubated overnight at 37 °C under microaerophilic conditions, and purity was assessed by examination under a light microscope (400× […]
Gametocyte viability was assessed as described by Ridgway et al. (21) with modifications.
Compounds or solvent controls (DMSO) were serially diluted across 96-well plates in culture media supplemented with 50 mM N-acetyl-D-glucosamine. Culture media without compound was used as a negative control. […]
control to determine background gametocyte fluorescence. Stage III-IV gametocytes (Day 7) or stage V (day 10) gametocytes were concentrated and added to the plate with 200 µL per well. The plate was incubated for 48 hours at 37 °C under humid microaerophilic conditions.
Parasites were then stained with 500 nM MitoTrackerTM Deep Red FM and 5 μg/ml Hoechst […]
cytometer as described above. […]
excluded. Live (positive) and dead (negative) gametocytes were differentiated by […]
percentage of each was calculated. […]

[3] = tested on: human hepatoma cells (Huh7); test: Human hepatoma viability assay (CellTiter-Blue); format: cell-based; settings: for Huh7 viability, dose-response data points (Figure 3F): replicate data points, listed as BC9B
Method: Huh7 hepatoma viability assays were conducted in the same manner as the P. berghei assays, with metabolic capacity (indicating viability) measured with a fluorescence microplate reader after incubation with CellTiter-Blue® (Promega) for 3 h.
Appendix Fraser/Curtis et al. […]
Human Hepatoma Viability Assays:
The Huh7 hepatoma cell line (ATCC) was maintained under routine culture conditions in Dulbecco's Modified Eagle Medium (DMEM) containing 3.7 g/L NaHCO3 supplemented with 10% foetal bovine serum (FBS), 100 units/mL penicillin, and 100 μg/mL streptomycin at 37 °C in a humidified 5% CO2 incubator.
Viability assays were performed in parallel to the P. berghei growth inhibition. 10,000 Huh7 cells were seeded in 96-well and dark-sided microplates (Greiner Bio One) and cultured at 37°C, 5% CO2 and 80% humidity. The next day, the media was replaced with compounds or solvent controls (DMSO) serially diluted in culture media. Media was partially replaced with new drug dilutions over the following two days. After 48 hours, CellTiter-Blue® (Promega) was added according to the manufacturer’s instructions and incubated for 3 hours. Fluorescence intensity was measured with 530/25 ex and 590/20 em in a Synergy HTX plate reader (Agilent).

COc1cc(NC(C)CCCNC(=O)CCC(=O)OC(C)C)c2ncccc2c1 (stereo not shown) [PQ-link]
P. falciparum asexual growth, percentage of control ([1]; 0.390625000 uM, 24 h): 112.3% and 89.93% and 91.19% and 112.1% and 102.3% and 68.21% and 112.6% and 108.2% and 99.03% | P. falciparum asexual growth, percentage of control ([1]; 0.781250000 uM, 24 h): 111.4% and 122.1% and 101.9% and 105.4% and 82.4% and 103% and 111.6% and 99.14% and 89.9% | P. falciparum asexual growth, percentage of control ([1]; 1.562500000 uM, 24 h): 124.5% and 109.9% and 95.57% and 96.52% and 118.5% and 100.1% and 113.4% and 107.6% and 105.7% | P. falciparum asexual growth, percentage of control ([1]; 3.125000000 uM, 24 h): 111% and 101.9% and 103% and 119.5% and 108.6% and 102.2% and 109.1% and 102.4% and 93.98% | P. falciparum asexual growth, percentage of control ([1]; 6.250000000 uM, 24 h): 79.77% and 100.5% and 104.2% and 100.4% and 95.65% and 80.04% and 97.39% and 93.98% and 89.23% | P. falciparum asexual growth, percentage of control ([1]; 12.500000000 uM, 24 h): 91.36% and 89.64% and 70.76% and 87.57% and 76.11% and 68.83% and 96.23% and 85.41% and 71.02% | P. falciparum asexual growth, percentage of control ([1]; 25.000000000 uM, 24 h): 68.25% and 69.29% and 40.14% and 53.66% and 42.59% and 27.83% and 74.48% and 57.35% and 79.45% | P. falciparum asexual growth, percentage of control ([1]; 50.000000000 uM, 24 h): 54.3% and 2.851% and -9.844% and -3.605% and -29.04% and -23.19% and 22.95% and 7.441% and 8.158% | IC50 ([1]; 3D7, 48 h): 21.9 µM | IC50 ([1]; 3D7, 72 h): 16.1 µM | IC50 ([1]; 3D7, 24 h, starting at ring stages): 25.2 µM | Gametocyte stage III-IV viability, percentage of control ([2]; 3.125000000 uM, replicate values, source data Fig. 2C, 3.125 µM): 95.52% (2×) and 103.7% and 98.94% and 103.3% and 102% and 98.19% and 98.79% and 101.3% and 100.5% and 109.4% | Gametocyte stage III-IV viability, percentage of control ([2]; 6.250000000 uM, replicate values, source data Fig. 2C, 6.25 µM): 103.3% and 99.89% and 101.1% and 100.9% and 104.1% and 103.4% and 100.6% and 98.59% and 102.7% and 100.3% and 94.88% | Gametocyte stage III-IV viability, percentage of control ([2]; 12.500000000 uM, replicate values, source data Fig. 2C, 12.5 µM): 96% and 94.38% and 101.5% and 100.5% and 100.7% and 100.4% and 98.39% (2×) and 102.7% and 98.65% and 95.96% | Gametocyte stage III-IV viability, percentage of control ([2]; 25.000000000 uM, replicate values, source data Fig. 2C): 93.41% and 97.62% and 99.34% and 95.75% and 97.14% and 99.2% and 97.59% and 96.58% and 96.77% and 92.46% and 91.11% | Gametocyte stage III-IV viability, percentage of control ([2]; 50.000000000 uM, replicate values, source data Fig. 2C): 83.69% and 82.72% and 92.56% and 88.38% and 90.37% and 90.15% and 87.94% (2×) and 83.57% and 86.8% and 83.3% | Gametocyte stage III-IV viability, percentage of control ([2]; 100.000000000 uM, replicate values, source data Fig. 2C): 63.1% and 60.41% and 65.29% and 78% and 74.98% and 78.2% and 65.68% and 65.48% and 64.86% and 59.49% and 56.77% and 63.58% | Gametocyte stage III-IV viability, percentage of control ([2]; 200.000000000 uM, replicate values, source data Fig. 2C): 0.3329% and -3.262% and -3.462% and -33.89% and -33.85% and -34.28% and -34.3% and -33.84% and -35.23% | viability at 3.125 µM ([2]; Plasmodium falciparum, 3.125000000 uM, replicate values, source data Fig. 2C, read-out: Gametocyte stage III-IV viability, percentage of control): 97.8% | viability at 6.25 µM ([2]; Plasmodium falciparum, 6.250000000 uM, replicate values, source data Fig. 2C, read-out: Gametocyte stage III-IV viability, percentage of control): 100% | viability at 12.5 µM ([2]; Plasmodium falciparum, 12.500000000 uM, replicate values, source data Fig. 2C, read-out: Gametocyte stage III-IV viability, percentage of control): 94.9% | viability at 25 µM ([2]; Plasmodium falciparum, 25.000000000 uM, replicate values, source data Fig. 2C, read-out: Gametocyte stage III-IV viability, percentage of control): 92.1% | viability at 50 µM ([2]; Plasmodium falciparum, 50.000000000 uM, replicate values, source data Fig. 2C, read-out: Gametocyte stage III-IV viability, percentage of control): 82.6% | IC50 ([2]; Plasmodium falciparum, read-out: IC50, P. falciparum gametocyte stage III-IV inhibition): 103 µM | Huh7 viability, dose-response data points (Figure 3F) ([3]; 0.015241580 uM, 0.0152416 µM): 107.3 and 97.91 and 99.21 and 88.27 and 85.99 and 85.17 and 77.48 and 99.67 and 102.9 | Huh7 viability, dose-response data points (Figure 3F) ([3]; 0.045724740 uM, 0.0457247 µM): 101.4 (2×) and 102.9 and 96.11 and 84.48 and 82.6 and 86.76 and 77.19 and 99.77 | Huh7 viability, dose-response data points (Figure 3F) ([3]; 0.137174210 uM, 0.137174 µM): 100.3 and 97.53 and 89.5 and 87.16 and 86.15 and 91.05 and 98.93 and 94.82 | Huh7 viability, dose-response data points (Figure 3F) ([3]; 0.411522630 uM, 0.411523 µM): 98.17 and 99.16 and 96.93 and 83.82 and 84.25 and 87.07 and 70.92 and 100.4 and 90.7 | Huh7 viability, dose-response data points (Figure 3F) ([3]; 1.234567900 uM, 1.23457 µM): 106.4 and 97.98 and 99.19 and 82.25 and 86.23 and 90.4 and 72.24 and 83.96 and 96.58 | Huh7 viability, dose-response data points (Figure 3F) ([3]; 3.703703700 uM, 3.7037 µM): 96.27 and 98.44 and 90.47 and 77.12 and 78.19 and 82.37 and 76.62 and 90.94 and 92.11 | Huh7 viability, dose-response data points (Figure 3F) ([3]; 11.111111100 uM, 11.1111 µM): 98.42 and 95.99 and 90.47 and 70.14 and 68.57 and 67.94 and 56.41 and 72.23 and 71.76 | Huh7 viability, dose-response data points (Figure 3F) ([3]; 33.333333300 uM, 33.3333 µM): 79.4 and 75.47 and 83.67 and 39.88 and 39.61 and 43.08 and 30.62 and 36.38 and 34.72 | Huh7 viability, dose-response data points (Figure 3F) ([3]; 100.000000000 uM): 33.18 and 40.69 and 39.77 and 19.19 and 19.87 and 20.01 and 9.61 and 11.04 and 10.16 | IC50 ([3]; Homo sapiens, Huh-7, 48 h, Huh7, read-out: IC50, human hepatoma inhibition (viability)): 32.8 µM
